Experimental data: patent US10030047B2 (Hoffmann-La Roche Inc., priority 2015, dated 2018)
≈ marks a conversion by molar mass, not a printed value. One block for each molecule: values may come before it.

Tested on: A. baumannii strain ATCC19606
Experiment: Minimum inhibitory concentration (MIC) determination, microbroth dilution (CLSI)
Assay type: cell-based
Details: Acinetobacter baumannii; A. baumannii ATCC19606; CAMHB; read after 20 hours; >=80% growth inhibition; read-out: ATCC19606 MIC
Protocol: The in vitro antimicrobial activity of the compounds was determined through microbroth minimum inhibitory concentration (MIC) methodology performed according to the Clinical and Laboratory Standard Institute guidelines (CLSI—M07-A9 Jan. 2012. Methods for Dilution Antimicrobial Susceptibility Tests for Bacteria That Grow Aerobically; Approved Standard—Ninth Edition, Clinical and Laboratory Standards Institute, Wayne/PA, US and the CLSI—M100-S24 Jan. 2014. Performance Standards for Antimicrobial Susceptibility Testing; Approved Standard—Fourth Informational Supplement, Clinical and Laboratory Standards Institute, Wayne/PA, US).
The compound stock solution was freshly prepared at 10× the required top concentration for the MIC determination, i.e. at 1280 mg/L, by reconstitution of the dry compound in 50:50 water:DMSO.
Polystyrene non-treated 96 wells microtiter plates were used for preparing panel containing compound serial twofold diluted at two times the final testing concentration (e.g. range from 64 to 0.06 μg/ml) in cation adjusted Mueller Hinton broth medium (CAMHB).
Inoculum was prepared by the “direct colony suspension method”. Colonies of A. baumannii ATCC19606 or clinical isolates were suspended in saline solution and adjusted to 0.5 McFarland, diluted 100 times in CAMHB broth and 50 μl added to each well (final concentration of cells ˜5×10^(5) CFU/ml and Final volume/well of 100 μl). Microtiter plates were sealed and incubated at 35±2° C.
MICs values were read after 20 hours of incubation and recorded as the lowest concentration of the antimicrobial that inhibits more or equal to 80% of growth of the organism as detected by the unaided eye and using a microtiter plate optical density reader (OD 600 nm).
Tables 2, 3, 4 and 5 provide the minimum inhibitory concentration (MIC) in microgram per milliliter of the compounds of present invention obtained against the A. baumannii strain ATCC19606 (Tables 2, 3, 4 and 5).

SMILES: CN1C(=O)[C@H](CCCCN)NC(=O)[C@H](CCCN)NCc2cccnc2Sc2c(Cl)ccc(F)c2CNC(=O)[C@@H]1Cc1c[nH]c2ccccc12 [Example 54, (11S,14S,17S)-14-(4-Amino-butyl)-1-(3-amino-propyl)-25-chloro-22-fluoro-17-(1H-indol-3-ylmethyl)-16-methyl-2-thia-4,10,13,16,19-pentaaza-tricyclo[19.4.0.0*3,8*]pentacosa-1(25),3(8),4,6,21,23-hexaene-12,15,18-trione]
MIC: 1 µg/mL (≈ 1.38 µM)

SMILES: CN1C(=O)[C@H](CCCCN)NC(=O)[C@H](CO)NCc2cccnc2Sc2c(Cl)cc(Cl)cc2CNC(=O)[C@@H]1Cc1c[nH]c2ccccc12 [Example 96, (11S,14S,17S)-14-(4-Amino-butyl)-23,25-dichloro-11-hydroxymethyl-17-(1H-indol-3-ylmethyl)-16-methyl-2-thia-4,10,13,16,19-pentaaza-tricyclo[19.4.0.0*3,8*]pentacosa-1(25),3,5,7,21,23-hexaene-12,15,18-trione]
MIC: 4 µg/mL (≈ 5.61 µM)

SMILES: CN1C(=O)[C@H](CCCCN)NC(=O)[C@H](CCCN)NCc2cccnc2Sc2c(Cl)cc(-n3ccnc3)cc2CNC(=O)[C@@H]1Cc1c[nH]c2ccccc12 [Example 227, (11S,14S,17S)-14-(4-Amino-butyl)-11-(3-amino-propyl)-25-chloro-23-imidazol-1-yl-17-(1H-indol-3-ylmethyl)-16-methyl-2-thia-4,10,13,16,19-pentaaza-tricyclo[19.4.0.0*3,8*]pentacosa-1(21),3,5,7,22,24-hexaene-12,15,18-trione]
MIC: 4 µg/mL (≈ 5.19 µM)

SMILES: Cc1[nH]c2ccccc2c1C[C@H]1C(=O)NCc2cc(-c3cncc(S(C)(=O)=O)c3)cc(Cl)c2Sc2ncccc2CN[C@@H](CCCN)C(=O)N[C@@H](CCCCN)C(=O)N1C [Example 199, (11S,14S,17S)-14-(4-Amino-butyl)-11-(3-amino-propyl)-25-chloro-23-(5-methanesulfonyl-pyridin-3-yl)-16-methyl-17-(2-methyl-1H-indol-3-ylmethyl)-2-thia-4,10,13,16,19-pentaaza-tricyclo[19.4.0.0*3,8*]pentacosa-1(25),3(8),4,6,21,23-hexaene-12,15,18-trione]
MIC: 1 µg/mL (≈ 1.14 µM)

SMILES: CCc1ccc2c(c1)CNC(=O)[C@H](Cc1c[nH]c3ccccc13)N(C)C(=O)[C@H](CCCCN)NC(=O)[C@H](CCCN)NCc1ccccc1S2 [Example 66, (12S,15S,18S)-15-(4-Amino-butyl)-18-(3-amino-propyl)-6-ethyl-12-(1H-indol-3-ylmethyl)-13-methyl-2-thia-10,13,16,19-tetraaza-tricyclo[19.4.0.0*3,8*]pentacosa-1(25),3,5,7,21,23-hexaene-11,14,17-trione]
MIC: 0.5 µg/mL (≈ 0.716 µM)

SMILES: NCCCC[C@@H]1NC(=O)[C@H](CCCN)NCc2cccnc2Sc2c(Cl)cc(Cl)cc2CNC(=O)[C@H](Cc2c[nH]c3ccccc23)NC1=O [Example 81, (11S,14S,17S)-14-(4-Amino-butyl)-11-(3-amino-propyl)-23,25-dichloro-17-(1H-indol-3-ylmethyl)-2-thia-4,10,13,16,19-pentaaza-tricyclo[19.4.0.0*3,8*1]pentacosa-1(25),3(8),4,6,21,23-hexaene-12,15,18-trione]
MIC: 1 µg/mL (≈ 1.38 µM)

SMILES: Cc1cccc2c1Sc1ccc(F)cc1CN[C@@H](CCCN)C(=O)N[C@@H](CCCCN)C(=O)N(C)[C@@H](Cc1c[nH]c3ccccc13)C(=O)NC2 [Example 65, (12S,15S,18S)-15-(4-Amino-butyl)-18-(3-amino-propyl)-23-fluoro-12-(1H-indol-3-ylmethyl)-4,13-dimethyl-2-thia-10,13,16,19-tetraaza-tricyclo[19.4.0.0*3,8*]pentacosa-1(25),3,5,7,21,23-hexaene-11,14,17-trione]
MIC: 32 µg/mL (≈ 45.6 µM)

SMILES: CN1C(=O)[C@H](CCCCN)NC(=O)[C@H](CCCN)NCc2cccnc2Sc2c(Cl)cncc2CNC(=O)[C@@H]1Cc1c[nH]c2ccccc12 [Example 157, (7S,10S,13S)— 13-((1H-Indol-3-yl)methyl)-10-(4-aminobutyl)-7-(3-aminopropyl)-20-chloro-12-methyl-6,7,9,10,12,13,15,16-octahydrodipyrido[2,3-b:3′,4′-p][1,5,8,11,14]thiatetraazacycloheptadecine-8,11,14(5H)-trione]
MIC: 16 µg/mL (≈ 22.7 µM)

More lines, now with the values ahead:

MIC: 0.5 µg/mL (≈ 0.678 µM)
SMILES: CN1C(=O)[C@H](CCCCN)NC(=O)[C@H](CCCN)NCc2ccccc2Sc2c(cccc2C(F)(F)F)CNC(=O)[C@@H]1Cc1c[nH]c2ccccc12 [Example 12, (12S,15S,18S)-15-(4-Amino-butyl)-18-(3-amino-propyl)-12-(1H-indol-3-ylmethyl)-13-methyl-4-trifluoromethyl-2-thia-10,13,16,19-tetraaza-tricyclo[19.4.0.0*3,8*]pentacosa-1(21),3,5,7,22,24-hexaene-11,14,17-trione]

MIC: 0.5 µg/mL (≈ 0.633 µM)
SMILES: CN1C(=O)[C@H](CCCCN)NC(=O)[C@H](CCCN)NCc2cccnc2Sc2c(Cl)cc(N3CCOCC3)cc2CNC(=O)[C@@H]1Cc1c[nH]c2ccccc12 [Example 92, (11S,14S,17S)-14-(4-Amino-butyl)-11-(3-amino-propyl)-25-chloro-17-(1H-indol-3-ylmethyl)-16-methyl-23-morpholin-4-yl-2-thia-4,10,13,16,19-pentaaza-tricyclo[19.4.0.0*3,8*]pentacosa-1(25),3,5,7,21,23-hexaene-12,15,18-trione]

MIC: 0.25 µg/mL (≈ 0.318 µM)
SMILES: CCN1C(=O)[C@H](CCCCN)NC(=O)[C@H](CCCN)NCc2cccnc2Sc2c(Cl)ccc(C(F)(F)F)c2CNC(=O)[C@@H]1Cc1c[nH]c2ccccc12 [Example 79, (11S,14S,17S)-14-(4-Amino-butyl)-11-(3-amino-propyl)-25-chloro-16-ethyl-17-(1H-indol-3-ylmethyl)-22-trifluoromethyl-2-thia-4,10,13,16,19-pentaaza-tricyclo[19.4.0.0*3,8*]pentacosa-1(25),3(8),4,6,21,23-hexaene-12,15,18-trione]

MIC: 0.5 µg/mL (≈ 0.633 µM)
SMILES: CN1C(=O)[C@H](CCCCN)NC(=O)[C@H](COCCN)NCc2cccnc2Sc2c(Cl)ccc(C(F)(F)F)c2CNC(=O)[C@@H]1Cc1c[nH]c2ccccc12 [Example 118, (11S,14S,17S)-14-(4-Amino-butyl)-11-(2-amino-ethoxymethyl)-25-chloro-17-(1H-indol-3-ylmethyl)-16-methyl-22-trifluoromethyl-2-thia-4,10,13,16,19-pentaaza-tricyclo[19.4.0.0*3,8*]pentacosa-1(25),3,5,7,21,23-hexaene-12,15,18-trione]

MIC: 0.12 µg/mL (≈ 0.152 µM)
SMILES: CN1C(=O)[C@H](CCCCN)NC(=O)[C@H](CCCN)NCc2cccnc2Sc2c(Cl)ccc(N3CCOCC3)c2CNC(=O)[C@@H]1Cc1c[nH]c2ccccc12 [Example 147, (11S,14S,17S)-14-(4-Amino-butyl)-11-(3-amino-propyl)-25-chloro-17-(1H-indol-3-ylmethyl)-16-methyl-22-morpholin-4-yl-2-thia-4,10,13,16,19-pentaaza-tricyclo[19.4.0.0*3,8*]pentacosa-1(25),3(8),4,6,21,23-hexaene-12,15,18-trione]

MIC: 0.12 µg/mL (≈ 0.153 µM)
SMILES: CN1C(=O)[C@H](CCCCN)NC(=O)[C@H](CCCN)NCc2cccnc2Sc2c(Cl)cc(Br)cc2CNC(=O)[C@@H]1Cc1c[nH]c2ccccc12 [Example 89, (11S,14S,17S)-14-(4-Amino-butyl)-11-(3-amino-propyl)-23-bromo-25-chloro-17-(1H-indol-3-ylmethyl)-16-methyl-2-thia-4,10,13,16,19-pentaaza-tricyclo[19.4.0.0*3,8*]pentacosa-1(25),3,5,7,21,23-hexaene-12,15,18-trione]
